For five compounds, Activity and IC50 results are on record in ChEMBL document CHEMBL1152756, “Photodynamic effects of novel 5,15-diaryl-tetrapyrrole derivatives on human colon carcinoma cells” (Bioorg Med Chem, 2009).

Test [1] deals with HCT-116. Kind of test: Induction of apoptosis in human HCT116 cells assessed as decrease in Bcl2 protein expression at IC50 after 24 hrs irradiated with tungsten-halogen white light for 2 hrs followed by incubation in drug free medium for 24 hrs […]. The test is classed as functional, cell-based.
In test [2] the test system is HCT-116. Kind of test: Cell cycle arrest in human HCT116 cells assessed as accumulation at G2/M phase at IC50 after 24 hrs irradiated with tungsten-halogen white light for 2 hrs followed by incubation in drug free medium for 24 hrs by flow cytometry. The test is classed as functional.
For test [3], the system named is HCT-116. Kind of test: Induction of apoptosis in human HCT116 cells assessed as decrease in survivin protein expression at IC50 after 24 hrs irradiated with tungsten-halogen white light for 2 hrs followed by incubation in drug free medium for 24 hrs […]. The test is classed as functional, cell-based.
Test [4] relates to HCT-116. Kind of test: Induction of apoptosis in human HCT116 cells at IC50 after 24 hrs irradiated with tungsten-halogen white light for 2 hrs followed by incubation in drug free medium for 24 hrs using annexin V-FITC staining by FACS. The test is classed as functional, cell-based.
Test [5] deals with HCT-116. Briefly: Cell cycle arrest in human HCT116 cells assessed as accumulation at G1 phase at IC50 after 24 hrs irradiated with tungsten-halogen white light for 2 hrs followed by incubation in drug free medium for 24 hrs by flow cytometry. The class given is functional. For orientation: Flow cytometry measures light scatter and fluorescence of single cells or particles in a stream.

Test [6] deals with HCT-116. Kind of test: Induction of apoptosis in human HCT116 cells assessed as increase in Bax protein expression at IC50 after 24 hrs irradiated with tungsten-halogen white light for 2 hrs followed by incubation in drug free medium for 24 hrs […]. The test is classed as functional, cell-based.
In test [7] the test system is HCT-116. Briefly: Phototoxicity against human HCT116 cells […] after 24 hrs irradiated with LED red light for 2 hrs followed by incubation in drug free medium for 24 hrs by MTT assay. The class given is functional, cell-based. Conditions: HCT-116, light or radiation study. Background: Tetrazolium dyes change colour on reduction, which living cells bring about.

For test [8], the system named is HCT-116. Briefly: Cell cycle arrest in human HCT116 cells assessed as accumulation at S phase at IC50 after 24 hrs irradiated with tungsten-halogen white light for 2 hrs followed by incubation in drug free medium for 24 hrs by flow cytometry. The class given is functional.
The test system of test [9] is HCT-116. Briefly: Phototoxicity against human HCT116 cells […] after 24 hrs irradiated with tungsten-halogen white light for 2 hrs followed by incubation in drug free medium for 24 hrs by MTT assay in presence of nitric oxide synthase inhibitor L-NMMA. The class given is functional, cell-based. The note with it: HCT-116, light or radiation study.

Test [10] has as its system HCT-116. Briefly: Phototoxicity against human HCT116 cells […] after 24 hrs irradiated with tungsten-halogen white light for 2 hrs followed by incubation in drug free medium for 24 hrs by MTT assay. The note with it: HCT-116, light or radiation study. The test is classed as functional, cell-based.
The test system of test [11] is HCT-116. Briefly: Induction of NO radical generation in human HCT116 cells at IC50 after 24 hrs irradiated with tungsten-halogen white light for 2 hrs followed by incubation in drug free medium for 24 hrs. The test is classed as functional, cell-based.
Test [12] concerns HCT-116. Kind of test: Induction of ROS generation in human HCT116 cells at IC50 after 24 hrs irradiated with tungsten-halogen white light for 2 hrs followed by incubation in drug free medium for 24 hrs by flow cytometry. The class given is functional, cell-based.

The term IC50 denotes the concentration that inhibits the measured activity by half.

The structures appear in SMILES notation. Converted amounts (≈) assume the structure as drawn. The source made the active and inactive calls. The calls are words filed in the database; no cut-off is given here.

Turning to `Oc1cccc(-c2c3nc(c(-c4cccc(O)c4)c4ccc([nH]4)c(-c4cccc(O)c4)c4nc(c(-c5cccc(O)c5)c5ccc2[nH]5)CC4)C=C3)c1` [TEMOPORFIN], the result in the test with HCT-116 [1], in the test on HCT-116 [3], with HCT-116 [4] and in the test with HCT-116 [6] was Active. For the same compound, the figures for the Activity with HCT-116 [2], with HCT-116 [5] and in the test on HCT-116 [8] were 27.17%, 51.53% and 21.29%, respectively. Also, the IC50 with HCT-116 [7] turned out to be 41 nM.
On to `C1=Cc2nc1cc1ccc([nH]1)c(-c1ccccc1)c1nc(cc3ccc([nH]3)c2-c2ccccc2)C=C1`, for which the result with HCT-116 [1], with HCT-116 [3], with HCT-116 [4] and in the test on HCT-116 [6] was Active. Moreover, the Activity in the test with HCT-116 [2] was found to be 29.27%; in the test with HCT-116 [5] it was 52.83%; with HCT-116 [8] it was 17.89%.
`Oc1cccc(-c2c3nc(cc4ccc([nH]4)c(-c4ccccc4)c4nc(cc5ccc2[nH]5)C=C4)C=C3)c1`: the outcome in the test on HCT-116 [1], in the test on HCT-116 [3], with HCT-116 [4], with HCT-116 [6], with HCT-116 [11] and with HCT-116 [12] was Active. Further, the figures for the Activity with HCT-116 [2], in the test with HCT-116 [5] and in the test on HCT-116 [8] were 29.69%, 49.03% and 21.28%, respectively. In addition, the figures for the IC50 in the test with HCT-116 [9], in the test with HCT-116 [10] and in the test with HCT-116 [7] were 0.482 ng/mL, 0.683 ng/mL (≈ 1.43 nM) and 3.96 nM, respectively.
For `Oc1cccc(-c2c3nc(cc4ccc([nH]4)c(-c4ccccc4)c4nc(cc5ccc2[nH]5)C=C4)CC3)c1`, the IC50 in the test on HCT-116 [7] is 1.32 nM.
In the case of `COc1cccc(-c2c3nc(cc4ccc([nH]4)c(-c4ccccc4)c4nc(cc5ccc2[nH]5)C=C4)C=C3)c1`, the result with HCT-116 [1], in the test with HCT-116 [3], in the test on HCT-116 [4] and in the test with HCT-116 [6] was Active. Besides, the Activity in the test on HCT-116 [2] is reported as 29.6%; in the test on HCT-116 [5] it was 52.4%; in the test on HCT-116 [8], 17.93%.
